Experimental findings from article PMC6501587 (The Journal of neuroscience : the official journal of the …, 2009) are described below.

Numbering of substitutions follows the chain as printed. Where two headings read alike, the source gives them in different places.

In general, EC50 refers to the concentration that produces a half-maximal response. A higher EC50 goes with a less potent agent.

Experiment [1] deals with T1, P2X4R (Rattus norvegicus, UniProt P51577).
T1 sequence (P51577 1-388): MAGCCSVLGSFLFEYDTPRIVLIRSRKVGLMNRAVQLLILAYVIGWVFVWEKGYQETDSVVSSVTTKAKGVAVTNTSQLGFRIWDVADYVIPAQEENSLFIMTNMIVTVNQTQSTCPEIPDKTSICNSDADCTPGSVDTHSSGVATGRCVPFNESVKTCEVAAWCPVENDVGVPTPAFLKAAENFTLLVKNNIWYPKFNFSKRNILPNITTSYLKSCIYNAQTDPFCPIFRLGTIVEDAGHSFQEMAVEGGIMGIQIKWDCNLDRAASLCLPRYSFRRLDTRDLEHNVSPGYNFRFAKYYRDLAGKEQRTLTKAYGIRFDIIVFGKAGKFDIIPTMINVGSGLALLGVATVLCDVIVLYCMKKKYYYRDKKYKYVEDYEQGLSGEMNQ
It is filed as cell-based. The conditions noted are these: oocytes; for effect on ATP-induced currents: 10 μM metal pre-applied 1 min and co-applied with 10 μM ATP.

Experiment [2] concerns the target T2, P2X2aR (Rattus norvegicus, UniProt P49653).
T2 sequence (P49653 1-472): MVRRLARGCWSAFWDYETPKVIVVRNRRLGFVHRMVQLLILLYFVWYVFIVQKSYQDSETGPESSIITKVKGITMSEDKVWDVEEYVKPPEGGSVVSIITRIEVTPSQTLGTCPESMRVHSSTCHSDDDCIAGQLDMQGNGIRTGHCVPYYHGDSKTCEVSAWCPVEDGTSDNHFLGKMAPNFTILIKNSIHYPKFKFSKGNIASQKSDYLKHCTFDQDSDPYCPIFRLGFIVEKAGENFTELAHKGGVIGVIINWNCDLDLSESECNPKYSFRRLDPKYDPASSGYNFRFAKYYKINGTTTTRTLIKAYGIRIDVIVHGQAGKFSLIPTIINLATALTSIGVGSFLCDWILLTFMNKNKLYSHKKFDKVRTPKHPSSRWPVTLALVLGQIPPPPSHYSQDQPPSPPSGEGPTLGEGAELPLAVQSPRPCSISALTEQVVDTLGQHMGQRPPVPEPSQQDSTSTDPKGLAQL
It is filed as cell-based. To be noted: for effect on the ATP-gated current: 10 μM metal pre-applied 1 min and co-applied with 30 μM ATP; for washout period sufficient to restore normal response: after 10 μM metal.

The subject of experiment [3] is P2X4/2a chimera. It is filed as cell-based, rat. To be noted: oocytes; for effect on deactivation constant: copper or zinc.
Experiment [4] relates to P2X4/2b chimera. The experiment is classed as cell-based, rat. The conditions noted are these: oocytes.
Experiment [5] has as its target T3, P2X2a-C430A (Rattus norvegicus, UniProt P49653, C430A).
T3 sequence (P49653 1-472 C430A): T2 sequence (P49653 1-472) with C430A
It is filed as cell-based. To be noted: oocytes; for potentiation compared to wild type P2X2aR: zinc or copper.

Experiment [6] concerns the target T4, P2X2a-C430S (Rattus norvegicus, UniProt P49653, C430S).
T4 sequence (P49653 1-472 C430S): T2 sequence (P49653 1-472) with C430S
The experiment is classed as cell-based. To be noted: oocytes; for potentiation compared to wild type P2X2aR: copper or zinc.

The target of experiment [7] is T4, P2X2a-C430S. The experiment is classed as cell-based. To be noted: HEK293 cells.
Experiment [8] deals with T5, P2X2bR (Rattus norvegicus, UniProt P49653, DEL370-438).
T5 sequence (P49653 with tags, fused parts or gaps DEL370-438): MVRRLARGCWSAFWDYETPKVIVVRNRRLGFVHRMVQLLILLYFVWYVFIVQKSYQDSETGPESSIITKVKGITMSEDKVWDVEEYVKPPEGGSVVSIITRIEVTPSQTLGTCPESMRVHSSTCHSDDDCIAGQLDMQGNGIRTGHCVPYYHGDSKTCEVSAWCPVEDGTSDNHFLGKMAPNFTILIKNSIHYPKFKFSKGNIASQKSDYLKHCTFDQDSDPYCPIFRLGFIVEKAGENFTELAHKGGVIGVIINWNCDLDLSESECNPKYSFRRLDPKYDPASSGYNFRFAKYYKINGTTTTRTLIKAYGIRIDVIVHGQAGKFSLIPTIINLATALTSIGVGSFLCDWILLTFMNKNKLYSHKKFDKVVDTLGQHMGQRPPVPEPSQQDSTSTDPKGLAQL
The experiment is classed as cell-based. The conditions noted are these: oocytes.

For experiment [9], the target named is T2, P2X2aR. As to the kind of experiment: ATP-evoked currents, whole-cell patch clamp, HEK293 cells expressing P2X2aR. It is filed as cell-based. Background: In patch-clamp work, channel activity is measured electrically.
For experiment [10], the target named is T5, P2X2bR. The experiment is classed as cell-based. To be noted: HEK293 cells.
Setting [11] is: saturating concentration of ATP.

Turning to `O[C@@H](CS)[C@@H](O)CS` (racemic) [DTT, dithiothreitrol], the “effect on receptor activity” value in [1] (DTT alone) was “did not modify the receptor activity”. In addition, the “effect of co-application with H2O2” value in experiment [1] (DTT co-applied with H2O2) is listed as “the inhibition was completely obliterated”; in experiment [2] (DTT co-applied with H2O2, oocytes), “abolished the effect of H2O2”. In addition, the “effect on ATP-evoked currents” value in experiment [2] (1 mM DTT alone, oocytes) was “did not modify the ATP-evoked currents”.
Regarding `[Cl-].[Cl-].[Zn+2]` [zinc], in [1], the “effect on ATP-induced currents” value is listed as “potentiated”. The “effect on the ATP-gated current” value in experiment [2] (oocytes) is recorded as “potentiated”. Besides, the “washout period sufficient to restore normal response” value in [2] (oocytes) is listed as at most 10 min. Further, in [3] (10 μM metal, 1 μM ATP), the “potentiation of 1 μM ATP-induced current” value is given as 2.6 ± 0.3 fold. In addition, the “effect on deactivation constant” value in experiment [3] is “did not modify significantly”. Besides, the “potentiation of receptor activity” value in experiment [4] (10 μM zinc, 1 μM ATP) is recorded as 2.6 ± 0.3 fold. The “potentiation compared to wild type P2X2aR” value is reported as “not significantly altered” in experiment [5] and “not changed” in experiment [6].
With `Nc1ncnc2c1ncn2[C@@H]1O[C@H](COP(=O)([O-])OP(=O)([O-])OP(=O)([O-])O)[C@@H](O)[C@H]1O.[Na+].[Na+].[Na+]` [ATP, ATP tri sodium salt], the EC50 was found to be 11 ± 2.6 µM in experiment [1] (ATP alone, Hill equation); 33.3 ± 2.5 µM in [2] (ATP alone, Xenopus laevis oocytes, Hill equation); 18.1 ± 3.3 µM in [7] (ATP alone, Hill equation); 59.2 ± 9.1 µM in experiment [8] (ATP alone, Hill equation); 4.8 ± 0.6 µM in experiment [3] (ATP alone, Hill equation); 4.6 ± 2.4 µM in [4] (ATP alone, Hill equation). Besides, the EC50 was found to be 293 ± 70 µM in experiment [5] (ATP alone, Hill equation); 45 ± 6.3 µM in experiment [6] (ATP alone, Hill equation); 10.2 ± 1.3 µM in experiment [9] (ATP alone, Hill equation); 7.6 ± 1.3 µM in experiment [10] (ATP alone, Hill equation). Besides, the Imax in experiment [1] (setting [11]) stood at 4.7 ± 0.6 μA; in experiment [2] (saturating concentration of ATP, oocytes), 12.1 ± 2.9 μA; in experiment [7] (setting [11]), 5.4 ± 0.9 nA; in experiment [8] (setting [11]) it was 15.6 ± 1.9 μA; in experiment [3] (setting [11]), 6.7 ± 1.5 μA; in [4] (setting [11]) it was 14.0 ± 1.5 μA. For the same compound, the Imax in experiment [5] (setting [11]) came to 1.2 ± 0.5 μA; in experiment [6] (setting [11]), 11.8 ± 0.8 μA; in experiment [9] (setting [11]), 4.6 ± 0.3 nA; in experiment [10] (setting [11]), 4.2 ± 0.9 nA. Also, the “10–90% deactivation time” value in experiment [2] (ATP alone (before mercury), oocytes) worked out at 4.4 ± 0.2 s; in [3] (ATP alone (before mercury)), 12.6 ± 1.1 s. The nH stood at 1.4 ± 0.1 in experiment [2] (ATP, oocytes, Hill equation); 1.5 ± 0.6 in experiment [7] (ATP); 1.4 ± 0.3 in experiment [8] (ATP); 0.9 ± 0.2 in experiment [3] (ATP); 1.2 ± 0.1 in [4] (ATP); 1.2 ± 0.3 in experiment [5] (ATP). The nH in [6] (ATP) is recorded as 1.4 ± 0.3; in [9] (ATP) it was 1.2 ± 0.2; in experiment [10] (ATP) it was 1.1 ± 0.3. The “reduction of ATP potency compared to the wild type” value in experiment [5] was found to be 10 fold.
Take `CSS(C)(=O)=O` [MMTS, Methylmethane-thiosulfonate]: the “effect on H2O2 potentiation” value in experiment [2] is listed as “abolished”. Besides, the “current increase by agent alone (transient and reversible)” value in experiment [2] (MMTS alone, oocytes, data not shown) was determined as 20%. In experiment [2] (MMTS treatment, oocytes), the “effect on mercury-induced potentiation” value is on record as “abolished”.
`[Cl][Cu][Cl]` [copper]: the “effect on ATP-induced currents” value in experiment [1] is recorded as “inhibited”. The “increase of 10–90% deactivation time” value in [2] came to 2 fold. Further, in [2] (oocytes), the “effect on the ATP-gated current” value is on record as “potentiated”. In experiment [2] (oocytes), the “washout period sufficient to restore normal response” value is listed as at most 10 min. Moreover, the “increase of ATP-gated currents” value worked out at 4.2 ± 0.9 fold in [7] (10 μM metal, ATP ~EC15) and 5.7 ± 1.5 fold in experiment [10] (10 μM metal, ATP ~EC15). Further, the “inhibition of ATP-evoked currents” value is 50% in experiment [3] (10 μM copper, 1 μM ATP) and 55 ± 12% in experiment [4] (10 μM copper, 1 μM ATP). For the same compound, in experiment [3], the “effect on deactivation constant” value is “did not modify significantly”. The “decrease of maximal ATP response” value in experiment [3] (copper, not shown) is given as 40%. For the same compound, the entries for the “potentiation compared to wild type P2X2aR” value in [5] and in [6] were “not significantly altered” and “not changed”, respectively. Moreover, in experiment [9] (10 μM metal, ATP ~EC15), the “increase of ATP-evoked currents” value stood at 4.5 ± 0.5 fold.
